Source: patent US9637496B2, “Substituted 7-azabicycles and their use as orexin receptor modulators” (priority 2013, dated 2017)
pKi: −log10 of the molar value. Read-outs that look alike come from different tables or passages of the source.

What was measured:
[1] = target: human orexin 1 receptor (Homo sapiens (Human), UniProt O43613); experiment: Human orexin 1 receptor radioligand binding (competitive binding, CHO membranes)
[2] = target: rat orexin 1 receptor (Rattus norvegicus (Rat), UniProt P56718); experiment: Rat orexin 1 receptor radioligand binding (competitive binding, HEK293 membranes)
[3] = target: human orexin 2 receptor (Homo sapiens (Human), UniProt O43614); experiment: Human orexin 2 receptor radioligand binding ([3H]-EMPA competition, HEK293 membranes)
[4] = human orexin 1 receptor, Table 2, averages from between 2-20 runs, read-out: hOX1 Ki
[5] = rat orexin 1 receptor, Table 2, averages from between 2-20 runs, read-out: rOX1 Ki
[6] = human orexin 2 receptor, Table 2, averages from between 2-20 runs, read-out: hOX2 Ki
[7] = Table 2, further testing, averages from 2-20 runs, read-out: hOX1 Ki
[8] = Table 2, further testing, averages from 2-20 runs, read-out: rOX1 Ki
[9] = Table 2, further testing, averages from 2-20 runs, read-out: hOX2 Ki

Chain of human orexin 1 receptor (O43613 whole entry): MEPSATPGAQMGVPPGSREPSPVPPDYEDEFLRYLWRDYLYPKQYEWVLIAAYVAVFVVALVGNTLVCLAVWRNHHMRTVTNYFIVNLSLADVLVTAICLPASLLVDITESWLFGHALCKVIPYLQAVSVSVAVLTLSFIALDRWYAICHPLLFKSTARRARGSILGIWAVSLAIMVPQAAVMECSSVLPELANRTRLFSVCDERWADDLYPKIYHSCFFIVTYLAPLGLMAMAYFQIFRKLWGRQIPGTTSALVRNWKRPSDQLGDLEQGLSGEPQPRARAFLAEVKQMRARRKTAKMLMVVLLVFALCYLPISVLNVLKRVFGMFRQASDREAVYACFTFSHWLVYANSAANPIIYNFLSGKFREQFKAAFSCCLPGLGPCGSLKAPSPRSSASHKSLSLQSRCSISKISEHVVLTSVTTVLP
Chain of rat orexin 1 receptor (P56718 whole entry): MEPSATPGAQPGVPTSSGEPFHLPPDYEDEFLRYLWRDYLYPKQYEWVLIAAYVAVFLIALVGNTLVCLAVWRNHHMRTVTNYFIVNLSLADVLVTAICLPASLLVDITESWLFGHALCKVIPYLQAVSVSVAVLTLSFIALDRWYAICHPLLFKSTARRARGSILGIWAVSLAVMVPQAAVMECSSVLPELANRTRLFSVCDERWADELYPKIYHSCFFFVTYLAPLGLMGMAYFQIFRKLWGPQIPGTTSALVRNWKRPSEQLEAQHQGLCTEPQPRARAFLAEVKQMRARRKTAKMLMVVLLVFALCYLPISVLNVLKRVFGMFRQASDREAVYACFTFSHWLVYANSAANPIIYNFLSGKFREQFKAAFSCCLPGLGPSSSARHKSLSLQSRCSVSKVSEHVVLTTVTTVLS
Chain of human orexin 2 receptor (O43614 whole entry): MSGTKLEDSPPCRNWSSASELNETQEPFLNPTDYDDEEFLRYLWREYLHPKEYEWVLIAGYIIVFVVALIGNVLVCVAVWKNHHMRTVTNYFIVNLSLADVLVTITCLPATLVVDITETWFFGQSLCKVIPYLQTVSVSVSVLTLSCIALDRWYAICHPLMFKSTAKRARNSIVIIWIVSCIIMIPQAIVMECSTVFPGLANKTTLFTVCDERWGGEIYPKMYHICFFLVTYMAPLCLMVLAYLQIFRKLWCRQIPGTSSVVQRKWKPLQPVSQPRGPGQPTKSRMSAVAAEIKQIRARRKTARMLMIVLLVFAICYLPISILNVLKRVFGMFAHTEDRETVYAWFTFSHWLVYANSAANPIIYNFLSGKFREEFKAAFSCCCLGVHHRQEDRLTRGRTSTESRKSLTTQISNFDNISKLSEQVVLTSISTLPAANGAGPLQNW

| SMILES | pKi [1, 4] | pKi [2, 5] | pKi [3, 6] | further results |
| --- | --- | --- | --- | --- |
| N#Cc1ccc(N[C@@H]2C[C@H]3CC[C@@H]2N3C(=O)c2cccc(F)c2-n2nccn2)nc1 [Example 390, 6-(((1S,2R,4R)-7-(3-fluoro-2-(2H-1,2,3-triazol-2-yl)benzoyl)-7-azabicyclo[2.2.1]heptan-2-yl)amino)nicotinonitrile] | 5.85 | 5.82 | < 5.00 |  |
| O=C(c1cccc(Cl)c1-c1ncccn1)N1[C@@H]2CC[C@H]1[C@H](Nc1ccc(C(F)(F)F)cn1)C2 [Example 376, (3-chloro-2-(pyrimidin-2-yl)phenyl)((1S,2R,4R)-2-((5-(trifluoromethyl)pyridin-2-yl)amino)-7-azabicyclo[2.2.1]heptan-7-yl)methanone] |  |  | 6.96 | pKi ([1]; read-out: hOX1 Ki): 8.40; pKi ([2]; read-out: rOX1 Ki): 8.00 |
| Cc1cnc(C(=O)N2[C@@H]3CC[C@H]2[C@H](Nc2ccc(C(F)(F)F)cn2)C3)c(-c2ncccn2)c1 [Example 380, (5-methyl-3-(pyrimidin-2-yl)pyridin-2-yl)((1S,2R,4R)-2-((5-(trifluoromethyl)pyridin-2-yl)amino)-7-azabicyclo[2.2.1]heptan-7-yl)methanone] |  |  | 5.07 | pKi ([1]; read-out: hOX1 Ki): 7.32; pKi ([2]; read-out: rOX1 Ki): 7.55 |
| Cc1cccc(C(=O)N2[C@@H]3CC[C@H]2[C@H](Nc2ccc(Br)cn2)C3)c1-c1ncccn1 [Example 304, ((1S,2R,4R)-2-((5-bromopyridin-2-yl)amino)-7-azabicyclo[2.2.1]heptan-7-yl)(3-methyl-2-(pyrimidin-2-yl)phenyl)methanone] | 7.80 | 7.92 | 6.34 |  |
| O=C(c1c(F)cccc1-c1ncccn1)N1[C@@H]2CC[C@H]1[C@H](Nc1ncc(C(F)(F)F)cc1F)C2 [Example 459, ((1S,2R,4R)-2-((3-fluoro-5-(trifluoromethyl)pyridin-2-yl)amino)-7-azabicyclo[2.2.1]heptan-7-yl)(2-fluoro-6-(pyrimidin-2-yl)phenyl)methanone] |  |  |  | pKi [1, 7]: 7.15; pKi [2, 8]: 7.59; pKi [3, 9]: 6.28 |
| O=C(c1ccccc1-c1ncccn1)N1[C@@H]2CC[C@H]1[C@H](Nc1ncc(C(F)(F)F)cc1F)C2 [Example 461, ((1S,2R,4R)-2-((3-fluoro-5-(trifluoromethyl)pyridin-2-yl)amino)-7-azabicyclo[2.2.1]heptan-7-yl)(2-(pyrimidin-2-yl)phenyl)methanone] |  |  |  | pKi [1, 7]: 7.62; pKi [2, 8]: 7.52; pKi [3, 9]: 6.12 |
| N#Cc1ccc(N[C@@H]2C[C@H]3CC[C@@H]2N3C(=O)c2cccc(F)c2-c2ncccn2)nc1 [Example 392, 6-(((1S,2R,4R)-7-(3-fluoro-2-(pyrimidin-2-yl)benzoyl)-7-azabicyclo[2.2.1]heptan-2-yl)amino)nicotinonitrile] | 5.85 | 6.00 | < 5.00 |  |
| Cc1noc(-c2cc(F)ccc2C(=O)N2[C@@H]3CC[C@H]2[C@H](Nc2cnc(C(F)(F)F)cn2)C3)n1 [Example 412, (4-fluoro-2-(3-methyl-1,2,4-oxadiazol-5-yl)phenyl)((1S,2R,4R)-2-((5-(trifluoromethyl)pyrazin-2-yl)amino)-7-azabicyclo[2.2.1]heptan-7-yl)methanone] | 6.48 | 6.90 | 5.32 |  |
| Cc1cccc(C(=O)N2C3CCC2C(Oc2ccc(C(F)(F)F)cn2)C3)c1-n1nccn1 (racemic) [Example 422] | 7.24 | 7.04 | 5.67 |  |
| O=C(c1cccc(F)c1-n1nccn1)N1[C@@H]2CC[C@H]1[C@H](Nc1ccc(C(F)F)cn1)C2 [Example 388, ((1S,2R,4R)-2-((5-(difluoromethyl)pyridin-2-yl)amino)-7-azabicyclo[2.2.1]heptan-7-yl)(3-fluoro-2-(2H-1,2,3-triazol-2-yl)phenyl)methanone] | 6.93 | 6.89 | 5.96 |  |
| O=C(c1c(F)cccc1-c1ncccn1)N1C2CCC1C(Oc1ccc(C(F)(F)F)cn1)C2 (racemic) [Example 431] |  |  |  | pKi [1]: 6.74; pKi [2]: 6.84; pKi [3]: 5.29 |
| O=C(c1cccc(F)c1-c1ncco1)N1C2CCC1C(Oc1ccc(C(F)(F)F)cn1)C2 (racemic) [Example 436] | 6.94 | 6.84 |  | pKi [3]: 5.46 |
